The values that follow come from patent publication US20100015709A1, “Regulating Stem Cell Differentiation By Controlling 2D and 3D Matrix Elasticity” (Trustees of the University of Pennsylvania, priority 2006, published 2010).

Bounds are passed on as bounds.

Series [1] relates to MSCs. The experiment in a line: MSC morphology (branching, spindle factor, spreading) on collagen-coated gels. The format is cell-based, human. As for the experimental part:
Cell Culture: Human Mesenchymal Stem Cells (MSCs; Osiris Therapeutics; Baltimore, Md. or Lonza), human osteoblasts (hFOBs; ATCC, Manassas, Va.), primary human skin fibroblasts (FC7) (Engler et al., 2004c, supra), and murine myoblasts (C2C12s; ATCC) were cultured in normal growth media, such as low glucose DMEM (Invitrogen) supplemented with 10% fetal bovine serum (FBS, Sigma) and 1% penicillin/streptomycin (Invitrogen) in regular tissue culture treated flasks (Corning). See also, U.S. Ser. No. 11/351,420. Media was exchanged every other day and cells were used up to passage number nine.
(§1) To inhibit proliferation, cells were exposed to mitomycin C (10 μg/ml) for 2 hr and washed three times with media prior to plating. Blebbistatin (50 μM; EMD Biosciences, Inc., San Diego, Calif.), a NMM II inhibitor, was applied with every media change and was stable in culture media for up to 48 hours, as determined by thin layer chromatography.
(§2) 1) Morphological Changes and Immunofluorescence: Changes in cell shape (<4 days), especially the development of neurite-like branches (Engler et al., 2004c, supra) or spindle-like morphologies (Flanagan et al., 2002, supra), were quantified either by the number of membrane branches per mm of cell or by a “spindle factor,” referring to the major cell axis/minor cell axis, respectively. […]

Series [2] concerns neuronal motility. The note with it: at mM concentrations; cited from earlier work.
A short description of series [3]: Stability in culture media by thin layer chromatography. The note with it: 50 μM. The format is physicochemical. As for the experimental part:
as §1

Series [4] has as its system MSCs. The experiment in a line: Lineage marker expression (immunofluorescence, western blot, oligonucleotide array). The format is cell-based, human. The note with it: blebbistatin 50 μM. As for the experimental part: as §2
Cells were fixed with formaldehyde, incubated in a 5% albumin blocking solution for 1 hour at 37° C., permeabilized with 0.5% Triton-X-100 and incubated overnight at 4° C. in 1:100 dilution of antibodies in PBS. […] Cell morphology and fluorescently labeled cells were examined on a TE300 inverted epi-fluorescent Nikon or Olympus (TIRF) microscope, imaged on a cascade CCD camera (PhotoMetrics, Huntington, Beach, Calif.), and quantified with Scion Image (Scion Corp., Frederick, Md.).
2) Western blotting: Cells (with or without blebbistatin treatment, 50 μM) were also plated on 45×50 mm coverslips to obtain enough cells for western blotting. […] Quantification of western blots was done by Scion Image software. […]
(In western blotting, separated proteins are transferred to a membrane and probed.)

The test system of series [5] is MSCs, C2C12-myoblasts, hFOB-osteoblasts. Description: Creep-test micropipette aspiration, membrane cortical stiffness. The format is cell-based. The protocol:
Creep-test Micropipette Aspiration: Micropipettes were forged using a deFonbrune-type microforge (Vibratome, St. Louis, Mo.) to a radius of 2-3 μm with an approximately 25° pipette curvature so when mounted in micromanipulators (Nirishige; Japan) at an angle similar to the micropipette's curvature. The end of the pipette was flush with the cell edge. A step pressure drop was imposed on the cell membrane, causing the membrane projection, L, to aspirate into the pipette as a function of time (t), pressure drop (ΔP) and pipette radius (R), as governed by the Sato and coworkers' viscoelastic half-space model (Sato et al., J. Biomech. Eng. 112:263-268 (1990), herein incorporated by reference:
Images of the projection length were taken every 2 seconds in brightfield on a TE300 inverted Nikon microscope and cascade CCD camera (Photometrics), which allowed accurate fitting of the parameters κ, μ′, and τ to the data to determine the elastic and viscous moduli of each membrane.

Series [6] shares this test system. Description: Traction force measurement, cell pre-stress. Particulars: any matrix. The format is cell-based. From the text: Traction Force Measurements: Adhesive stresses, imposed on the matrix surface by an adherent cell, generate a displacement field from embedded beads within a soft substratum, which can be mapped on the cell if the gel can be approximated as a semi-infinite solid. Briefly, the well characterized traction force method (Butler et al., 2002, supra; Dembo et al., 1999, supra; Wang et al., 2002b, supra) uses bead displacements between images with, and without, the adherent cell to assemble a displacement field and determine Green's strain function given known material properties of the substratum (elastic modulus, Poisson's ratio, etc). The traction field was used to obtain the cell pre-stress, i.e., the net tensile force over the cell-matrix interface carried by the actin cytoskeleton across a cross-sectional area of the cell that balances cell traction forces (Wang et al., 2002b, supra).

Series [7] relates to MSCs. Description: 3D hydrogel sandwich overlay, cell morphology. The format is cell-based, human. Particulars: treated after the overlay procedure. The protocol: Hydrogel Sandwich Preparation: The whole procedure is performed in a biosafety cabinet to maintain sterility. All equipment used was either sterile or sterilized by UV treatment for one hour. To produce the sandwich-like structures, cells were cultured for a given time on regular 2D substrates supported by 25 mm aminosilanized cover slips, rinsed with PBS and dried of the bulk liquid. 35 μl of the hydrogel mixture was added immediately and the sample was covered with a hydrophobic chlorosilanized glass slip to create a homogenous overlay gel. After one hour the top cover slip was carefully removed and the sandwich rinsed with PBS to remove any unbound residues. Subsequently, the gels were incubated for two hours at 37° C./5.0% CO2 in media supplemented with 1.5% or 2% cysteine (w/v) or iodacetamide solution using a shaker to cap or inactivate any remaining free thiols. […]
Immuno-staining, fluorescence microscopy, and image analysis: Cells were fixed for five minutes in a 10% solution of formaldehyde (Sigma) in PBS (Gibco) and subsequently permeabilized with a 0.5% solution of TritonX 100 (Sigma) in PBS followed by rinsing in PBS. […]
Cell area A and spindle factor r (ratio of major to minor axis of a fitted ellipse) were determined using the built-in functions of ImageJ (available at http:rsb.info.nih.gov/ij; developed by Wayne Rasband, National Institutes of Health, Bethesda, Md.). […]

The test system of series [8] is hMSCs. Description: Nucleus morphology of hMSCs on gels. The format is cell-based, human. Particulars: 11 kPa substrates. As for the experimental part: Immuno-staining, fluorescence microscopy, and image analysis: Cells were fixed for five minutes in a 10% solution of formaldehyde (Sigma) in PBS (Gibco) and subsequently permeabilized with a 0.5% solution of TritonX 100 (Sigma) in PBS followed by rinsing in PBS. Samples were then incubated in a 1:250 solution of the appropriate primary antibody in a 3% solution of BSA (Sigma) in PBS for at least 2 hours at room temperature on a rocker. To remove any unspecifically bound antibodies, the gels were incubated with a 0.5% solution of TritonX 100 for five minutes and rinsed with PBS twice, followed by incubation with secondary antibodies (1:250 in 3% BSA in PBS) and rhodamine-phalloidin (Sigma) for at least one hour on a rocker at room temperature. […]
Cell area A and spindle factor r (ratio of major to minor axis of a fitted ellipse) were determined using the built-in functions of ImageJ (available at http:rsb.info.nih.gov/ij; developed by Wayne Rasband, National Institutes of Health, Bethesda, Md.).
Since matrix elasticity not only influences cell and cytoskeleton morphology, but also the differentiation of hMSCs, and therefore global changes in patterns of gene expression, the morphology of the nucleus was analyzed in terms of projected area A and spindle factor of the projected area r to gain insight into the transduction of mechanical signals from the matrix to the nucleus. […]

Series [9] has as its system NMM II ATPase. Particulars: cited from earlier work.
The target of series [10] is myosin light chain kinase (MLCK) (Homo sapiens, UniProt Q15746). Particulars: at concentrations inhibiting NMM II ATPase; cited from earlier work.
Chain of myosin light chain kinase (MLCK) (Q15746 whole entry): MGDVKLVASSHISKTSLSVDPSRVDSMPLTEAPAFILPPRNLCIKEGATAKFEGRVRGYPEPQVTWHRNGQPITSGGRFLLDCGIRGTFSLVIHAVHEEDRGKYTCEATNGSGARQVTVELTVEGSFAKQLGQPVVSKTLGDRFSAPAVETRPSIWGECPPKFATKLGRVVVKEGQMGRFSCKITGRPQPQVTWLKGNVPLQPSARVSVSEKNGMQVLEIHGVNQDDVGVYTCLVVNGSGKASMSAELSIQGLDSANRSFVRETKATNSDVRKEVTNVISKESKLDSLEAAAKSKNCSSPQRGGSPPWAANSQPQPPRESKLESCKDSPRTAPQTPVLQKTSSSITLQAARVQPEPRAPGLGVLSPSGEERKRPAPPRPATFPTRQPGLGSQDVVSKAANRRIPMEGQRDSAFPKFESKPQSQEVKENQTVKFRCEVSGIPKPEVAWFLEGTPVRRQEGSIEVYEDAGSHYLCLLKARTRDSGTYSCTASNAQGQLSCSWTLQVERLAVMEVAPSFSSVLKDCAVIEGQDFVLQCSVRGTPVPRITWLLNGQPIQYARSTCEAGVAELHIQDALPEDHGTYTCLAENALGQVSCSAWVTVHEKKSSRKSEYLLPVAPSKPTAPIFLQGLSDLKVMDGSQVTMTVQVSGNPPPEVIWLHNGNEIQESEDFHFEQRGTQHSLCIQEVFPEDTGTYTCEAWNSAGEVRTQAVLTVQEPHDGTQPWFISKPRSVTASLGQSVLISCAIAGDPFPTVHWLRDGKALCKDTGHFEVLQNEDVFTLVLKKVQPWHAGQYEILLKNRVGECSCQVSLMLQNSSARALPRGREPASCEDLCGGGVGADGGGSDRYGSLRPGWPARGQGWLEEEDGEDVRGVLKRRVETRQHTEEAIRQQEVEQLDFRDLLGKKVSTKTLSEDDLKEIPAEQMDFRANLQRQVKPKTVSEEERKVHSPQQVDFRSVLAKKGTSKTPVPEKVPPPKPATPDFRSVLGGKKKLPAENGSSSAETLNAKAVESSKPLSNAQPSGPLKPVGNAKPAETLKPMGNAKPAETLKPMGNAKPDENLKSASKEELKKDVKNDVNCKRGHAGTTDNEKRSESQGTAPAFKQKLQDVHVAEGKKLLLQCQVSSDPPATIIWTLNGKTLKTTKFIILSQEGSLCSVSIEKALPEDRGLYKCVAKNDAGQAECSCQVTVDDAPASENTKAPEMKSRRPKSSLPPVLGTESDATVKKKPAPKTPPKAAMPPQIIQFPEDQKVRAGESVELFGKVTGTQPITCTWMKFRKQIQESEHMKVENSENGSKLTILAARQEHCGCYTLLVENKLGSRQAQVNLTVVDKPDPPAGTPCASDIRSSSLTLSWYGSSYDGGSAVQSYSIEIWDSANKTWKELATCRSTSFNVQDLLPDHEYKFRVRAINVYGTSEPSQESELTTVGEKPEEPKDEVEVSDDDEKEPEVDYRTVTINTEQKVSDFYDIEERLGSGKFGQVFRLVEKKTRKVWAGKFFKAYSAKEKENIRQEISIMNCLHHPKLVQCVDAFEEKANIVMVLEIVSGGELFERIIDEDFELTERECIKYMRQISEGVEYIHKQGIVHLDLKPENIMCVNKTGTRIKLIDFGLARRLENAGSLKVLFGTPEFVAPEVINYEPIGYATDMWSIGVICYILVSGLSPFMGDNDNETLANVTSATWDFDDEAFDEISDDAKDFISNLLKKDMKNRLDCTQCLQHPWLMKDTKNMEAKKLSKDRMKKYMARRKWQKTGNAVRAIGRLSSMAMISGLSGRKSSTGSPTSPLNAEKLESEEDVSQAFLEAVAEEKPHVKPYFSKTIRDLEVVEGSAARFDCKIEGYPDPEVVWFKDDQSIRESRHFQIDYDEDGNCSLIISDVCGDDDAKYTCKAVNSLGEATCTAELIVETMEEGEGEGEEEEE
Series [11] deals with vertebrate cells. Particulars: cited from earlier work.

For `CO[C@@]12[C@H](COC(N)=O)C3=C(C(=O)C(C)=C(N)C3=O)N1C[C@@H]1N[C@@H]12` [mitomycin-C, mitomycin C], the “average cell shape after inhibition of proliferation” value in series [1] (mitomycin C 10 μg/ml for 2 hr before plating) was “little impact on average cell shape”.

Turning to `CC(=O)/C(C)=N/O` [BDM], in series [2], the neuronal motility result is listed as “block neuronal motility”.

In the case of `Cc1ccc2c(c1)C(=O)C1(O)CCN(c3ccccc3)C1=N2` (centres unmarked) [blebbistatin], the “branching, elongation and spreading of MSCs” value in [1] (blebbistatin 50 μM, cells on any substrate) is “block branching, elongation, and any significant spreading of MSCs”. For the same molecule, in [3], the “stability in culture media” value is given as “up to 48 hours”. Also, in [4], the “lineage marker expression by MSCs” value was “blocked all marker expression”. In addition, the “development of cortical stiffness κ” value in series [5] (any matrix) was “prevented any of the cells from developing”. Also, the “softening of cell membranes (membrane cortical stiffness)” value in series [5] (micropipette aspiration, all gels) was “more than 3 fold”. In addition, the “development of pre-stress σ” value in [6] was “prevented any of the cells from developing”. Further, in series [7], the “actin stress fibers of cells in sandwich overlay” value was “lacked any organized actin stress fibers” and the “spindle factor r of cells in sandwich overlay” value is recorded as “not significantly different from that of the 2D control”. In series [8], the “matrix-dependent change of nucleus projected area and aspect ratio” value is recorded as “inhibited”. In addition, in [9], the “drug concentration inhibiting NMM II ATPase activity” value was below 10 µM. In series [10], the “effect on myosin light chain kinase” value is given as “without affecting”. In series [11], the “cell blebbing, directed cell migration and cytokinesis” value is “blocking cell blebbing and rapidly disrupting directed cell migration and cytokinesis”.
